Source: US12227509B2, “Dihydropyrazolopyrazinone derivative having MGAT2 inhibitory activity” (Shionogi & Co., Ltd., priority 2019, dated 2025)
In brackets after ≈: the same amount, converted by molar mass.

What was measured:
[1] = BA test (oral absorption); format: in vivo; details: plasma; mice or SD rats; from AUCs of oral and intravenous administration
Description: Materials and methods for experiments to evaluate oral absorption
(1) Animals: the mice or SD rats were used.
(2) Breeding conditions: the mice or SD rats were allowed to freely take solid food and sterilized tap water.
(3) Setting of dosage and grouping: Oral administration and intravenous administration were performed with a predetermined dosage. Grouping was set as below. (dosage changed per compound)
Oral administration: 1 to 30 mg/kg (n=2 to 3)
Intravenous administration: 0.5 to 10 mg/kg (n=2 to 3)
(4) Preparation of administration solution: Oral administration was performed in the form of a suspension or a solution. Intravenous administration was performed after solubilization.
(5) Routes of administration: Oral administration was performed mandatory into the stomach by oral sonde. Intravenous administration was performed from caudal vein or femoral vein by syringes with needle.
(6) Evaluation items: blood was collected over time, and the plasma concentration of the compound of the present invention was measured by LC/MS/MS.
(7) Statistical analysis: regarding the transition of the plasma concentration of the compound of the present invention, the area under the plasma concentration-time curve (AUC) was calculated by non-linear least squares program WinNonlin (registered trademark), and the bioavailability (BA) of the compound of the present invention was calculated from the AUCs of the oral administration group and intravenous administration group.

[2] = Metabolism stability test (human liver microsomes); format: in vitro ADME; details: compound concentration 0.5 μmol/L, 37° C., 30 minutes, NADPH
[3] = target: hERG (IKr) (Homo sapiens (Human), UniProt Q12809); experiment: hERG test; format: cell-based; details: CHO cells expressing hERG channel, pH 7.4, 10 μmol/L of test compound, read-out: % inhibition of hERG tail peak current (IKr)
[4] = Powder solubility test; format: physicochemical; details: pH 6.8, aqueous buffer, thermodynamic from solid, JP-2 solution, 37° C.
Description: Appropriate quantity of the compound of the present invention was put in suitable containers. 200 μL of JP-1 solution (water was added to 2.0 g of sodium chloride and 7.0 mL of hydrochloric acid to reach 1000 mL), 200 μL of JP-2 solution (500 mL of water was added to 500 mL of phosphate buffer (pH 6.8)) or 20 mmol/L sodium taurocholate (TCA)/JP-2 solution (JP-2 solution was added to 1.08 g of TCA to reach 100 mL) was independently added to each container. When total amount was dissolved after adding the test reagent, the compound of the present invention was added appropriately. After sealing and shaking at 37° C. for 1 hour, solution was filtrated and 100 μL of methanol was added to 100 μL of each filtrate to dilute two-fold. The dilution ratio and the dilution solvent were changed as necessary. After checking that there was no bubble and deposit, the container was sealed and shaken. The compound of the present invention was measured using HPLC by absolute calibration curve method.

[5] = target: recombinant human MGAT2 (Homo sapiens (Human), UniProt Q3SYC2); experiment: Measurement of human MGAT2 inhibitory activity; format: biochemical; details: concentration exhibiting 50% enzyme inhibition; recombinant human MGAT2, 2-Oleoylglycerol/Oleoyl-CoA
In short: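 Membrane fraction of baculovirus-infected Sf-9 cells expressing N-terminally Flag-tagged full-length human MGAT2, in 100 mmol/L phosphate pH 7.4 with 2 mmol/L DTT. The substrate solution held 30 μmol/L 2-oleoylglycerol and 10 μmol/L oleoyl-CoA. After 1 h at room temperature, diolein/diolein-d5 ratio was read by ESI Q-TOF MS and % inhibition derived against enzyme and no-enzyme controls.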

Sequence of hERG (IKr) (Q12809 whole entry): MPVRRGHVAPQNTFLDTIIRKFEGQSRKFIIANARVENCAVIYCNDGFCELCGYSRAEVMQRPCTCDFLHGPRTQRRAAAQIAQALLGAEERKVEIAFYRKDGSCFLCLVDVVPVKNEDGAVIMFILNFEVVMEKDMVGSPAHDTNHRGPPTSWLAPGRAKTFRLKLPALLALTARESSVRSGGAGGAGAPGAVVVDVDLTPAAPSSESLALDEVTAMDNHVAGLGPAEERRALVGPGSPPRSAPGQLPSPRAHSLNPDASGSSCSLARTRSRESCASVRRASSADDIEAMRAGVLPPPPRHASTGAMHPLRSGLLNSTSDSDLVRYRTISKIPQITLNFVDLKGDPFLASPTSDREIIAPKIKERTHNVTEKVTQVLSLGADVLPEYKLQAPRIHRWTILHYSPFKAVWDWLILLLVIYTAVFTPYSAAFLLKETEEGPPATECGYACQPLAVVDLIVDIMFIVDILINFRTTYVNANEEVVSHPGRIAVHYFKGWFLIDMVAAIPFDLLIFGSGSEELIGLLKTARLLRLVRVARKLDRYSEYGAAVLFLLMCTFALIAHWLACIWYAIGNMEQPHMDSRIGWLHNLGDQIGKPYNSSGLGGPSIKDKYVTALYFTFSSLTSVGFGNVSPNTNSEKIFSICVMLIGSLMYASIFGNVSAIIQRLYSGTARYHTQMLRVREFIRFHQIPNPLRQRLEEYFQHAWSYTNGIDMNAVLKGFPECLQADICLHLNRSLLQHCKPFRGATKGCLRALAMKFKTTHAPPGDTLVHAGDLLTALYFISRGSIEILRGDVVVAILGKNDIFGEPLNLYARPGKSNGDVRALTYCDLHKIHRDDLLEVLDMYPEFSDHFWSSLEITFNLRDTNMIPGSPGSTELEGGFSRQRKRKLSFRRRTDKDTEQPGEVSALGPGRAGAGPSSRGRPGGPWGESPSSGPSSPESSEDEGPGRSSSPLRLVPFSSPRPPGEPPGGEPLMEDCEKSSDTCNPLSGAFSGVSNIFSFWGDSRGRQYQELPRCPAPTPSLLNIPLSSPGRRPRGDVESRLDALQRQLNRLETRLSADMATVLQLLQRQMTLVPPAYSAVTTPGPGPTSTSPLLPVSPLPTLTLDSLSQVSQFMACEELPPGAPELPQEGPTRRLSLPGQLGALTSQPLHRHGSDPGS
Sequence of recombinant human MGAT2 (Q3SYC2 whole entry): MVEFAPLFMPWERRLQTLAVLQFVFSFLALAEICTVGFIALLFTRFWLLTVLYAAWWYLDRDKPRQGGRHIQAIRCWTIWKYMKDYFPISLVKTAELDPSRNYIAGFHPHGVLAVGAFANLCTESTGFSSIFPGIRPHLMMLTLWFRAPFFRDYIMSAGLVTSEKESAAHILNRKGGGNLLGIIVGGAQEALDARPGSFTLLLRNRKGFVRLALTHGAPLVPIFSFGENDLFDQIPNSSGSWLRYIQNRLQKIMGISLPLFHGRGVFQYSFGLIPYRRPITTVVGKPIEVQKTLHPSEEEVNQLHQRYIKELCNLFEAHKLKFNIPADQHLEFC

| SMILES | bioavailability [1] | Remaining rate [2] | solubility at 1 h [4] | IC50 [5] | inhibition at 10 min, 10 μmol/L [3] |
| --- | --- | --- | --- | --- | --- |
| CS(=O)(=O)CC(=O)Nc1c(CCC2CC2)nn2c1C(=O)N[C@@]1(CCc3cc(OCC(F)(F)F)ccc31)C2 [Compound I-46] | 53.1% | 78.1% | 8.64 µM (≈ 4.67 µg/mL) | – | – |
| CS(=O)(=O)CC(=O)Nc1c(CCC(F)(F)F)nn2c1C(=O)N[C@@]1(CCc3cc(OCC(F)(F)F)ccc31)C2 [Compound I-58] | 88.2% | 88.4% | – | – | – |
| N#Cc1ccc(-c2nn3c(c2NC(=O)CC(F)(F)F)C(=O)N[C@@]2(CCc4cc(OCC(F)(F)F)ccc42)C3)nc1 [Compound I-14] | – | 103% | – | 46.1 nM | 25.5% |

Continued, in another order:

| bioavailability [1] | Remaining rate [2] | solubility at 1 h [4] | IC50 [5] | SMILES | inhibition at 10 min, 10 μmol/L [3] |
| --- | --- | --- | --- | --- | --- |
| 63.4% | 74.5% | – | – | Cc1ccc(-c2nn3c(c2NC(=O)CS(C)(=O)=O)C(=O)N[C@@]2(CCc4cc(OCC(F)(F)F)ccc42)C3)cc1 [Compound I-20] | 27.8% |
| 55.1% | 92.4% | – | – | Cc1ccc(-c2nn3c(c2NC(=O)CS(C)(=O)=O)C(=O)N[C@@]2(CCc4cc(OCC(F)(F)F)ccc42)C3)nc1 [Compound I-6] | – |
